Source: patent US6335341B1, “Pyridyl-and pyrimidyl-heterocyclic compounds inhibiting oxido squalene-cyclase” (Zeneca Limited, priority 1997, dated 2002)

In the case of Cc1nccc(N2CCN(CC3CCN(S(=O)(=O)c4ccc(Cl)cc4)CC3)CC2)n1 [Example 1, 1-(4-chlorophenylsulphonyl)-4-[1-(2-methylpyrimidin-4-yl)piperazin-4ylmethyl]piperidine], the melting point is reported as 191 to 193 °C (dec.).
Molecule O=S(=O)(c1ccc(Br)cc1)N1CCC(CN2CCC(c3ccncc3)CC2)CC1 [Example 3, 1-(4-bromophenylsulphonyl)-4-[4-(4-pyridyl)-1-piperidylmethyl]piperidine] has a melting point of 163 to 164 °C.
Molecule Cc1nccc(N2CCC(CN3CCN(C(=O)c4ccc(F)cc4)CC3)CC2)n1 [Example 8, 1-(4-fluorobenzoyl)-4-[1-(2-methyl-4-pyrimidinyl)-4-piperidylmethyl]piperazine] has a melting point of 127 to 128 °C.
Cc1cc(N2CCC(CN3CCN(S(=O)(=O)c4ccc(Cl)cc4)CC3)CC2)nc(C)n1 [Example 11, 1-(4-chlorophenylsulphonyl)-4-[1-(2,6-dimethylpyrimidin-4-yl)-4-piperidylmethyl]piperazine] gave a melting point of 73 to 74 °C.
With Cc1nccc(N2CCC(O)(CN3CCN(C(=O)c4ccc(F)cc4)CC3)CC2)n1 [Example 15, 1-(4-fluorobenzoyl)-4-[1-(2-methylpyrimidin-4-yl]-4-hydroxy-4-piperidylmethyl]piperazine] the melting point was 114 to 117 °C.
Molecule O=S(=O)(c1ccc(Br)cc1)N1CCN(CC2CCN(c3ccncc3)CC2)CC1 [Example 19, 1-(4-bromophenylsulphonyl)-4-[1-(4-pyridyl)piperidin-4-ylmethyl]piperazine] has a melting point of 179 to 180 °C.
O=S(=O)(c1ccc(Br)cc1)N1CCN(CC2CCN(c3ccncc3Cl)CC2)CC1 [Example 20, 1-(4-bromophenylsulphonyl)-4-[1-(3-chloro-4-pyridyl)piperidin-4-ylmethyl]piperazine] showed a melting point of 158 to 159 °C.
